“And” between values parts separate entries of the source, which are not always exact repeats. Equal values may be shown once.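 Each compound was tested at five concentrations against cells in 96-well plates for 48 hours. At the GI50, growth is halved. TGI marks complete inhibition of growth.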 Bounds are passed on as bounds.

Some test systems named below: A549 NSCLC; CAKI-1 renal; HCC-2998 colon; KM12 colon; OVCAR-4 ovarian; SF-295 CNS; SNB-19 CNS; SR leukemia.
Assay in all cases: DTP human tumour cell line panel, 48 h

As a reminder, the GI50 is the concentration at which growth is held to half of that of the control. By TGI is commonly meant the concentration giving total growth inhibition. High values mean lower sensitivity of the cells, low ones greater sensitivity of the cells. As for `COc1cc2c(c(OC)c1OC)-c1ccc(SC)c(=O)cc1[C@@H](NCc1cccc(C#N)c1)CC2`, the GI50 in the assay on A549 NSCLC, in the assay with KM12 colon, in the assay on SF-295 CNS and in the assay with SNB-19 CNS was under 0.0075 µM in each case. Further, the TGI in the assay with A549 NSCLC is over 75 µM; in the assay on CAKI-1 renal, over 75 µM; in the assay on HCC-2998 colon it was 0.0515 µM; in the assay with KM12 colon it was 0.0509 µM and 0.0128 µM; in the assay with OVCAR-4 ovarian, over 75 µM; in the assay with SNB-19 CNS it was over 75 µM. The TGI with SR leukemia amounted to 12.2 µM.
With `NCCCC1NC(=O)/C(=C(O)/C=C/C2CCC[C@@H]2CC2SCCS2)C1=O` (stereo partly specified), the TGI in the assay with A549 NSCLC, with HCC-2998 colon, in the assay with KM12 colon, in the assay with OVCAR-4 ovarian, with SF-295 CNS and with SNB-19 CNS was over 100 µM throughout. This compound showed a TGI in the assay with SR leukemia of over 100 µM.
As to `Cc1ccccc1NC(=O)C1C(=O)N(c2ccccc2C)C(=O)/C1=N\N` (stereo unspecified), the TGI with A549 NSCLC, in the assay on CAKI-1 renal, in the assay on HCC-2998 colon, in the assay on KM12 colon, in the assay on OVCAR-4 ovarian and with SF-295 CNS was over 100 µM throughout. For the same compound, the TGI with SNB-19 CNS and with SR leukemia was over 100 µM throughout.
For `Cc1c(C(=O)/C=C/c2ccccc2Cl)[n+](=O)c2ccccc2n1[O-]`, the TGI in the assay on A549 NSCLC stood at 33.3 µM; with CAKI-1 renal it was 10.6 µM; in the assay on KM12 colon, 27.3 µM; in the assay with OVCAR-4 ovarian, 25.8 µM; in the assay on SF-295 CNS it was 28 µM; with SNB-19 CNS, 31 µM. The compound further displayed a TGI in the assay with SR leukemia of 51.5 µM.
As for `CCOC(=O)N1N=NC2C3OC(C[C@@]3(C#N)OC(C)=O)[C@H]21` (stereo partly specified), the TGI in the assay on A549 NSCLC, in the assay on CAKI-1 renal, in the assay on HCC-2998 colon, with KM12 colon, in the assay on OVCAR-4 ovarian and in the assay with SF-295 CNS was over 100 µM throughout. The TGI in the assay on SNB-19 CNS and in the assay on SR leukemia was over 100 µM throughout.
For the compound `Nc1ccc2c(c1)CC1c3ccccc3C(C2)c2ccccc21`, the TGI in the assay on A549 NSCLC, in the assay with CAKI-1 renal, with HCC-2998 colon, with KM12 colon, in the assay with OVCAR-4 ovarian and in the assay on SF-295 CNS was over 100 µM each time. The TGI with SNB-19 CNS was over 100 µM.
Take `CC(=O)Nc1ccccc1-c1cnc2ccccc2n1`: the concentration for total growth inhibition (TGI) in the assay on A549 NSCLC, in the assay on CAKI-1 renal, in the assay on HCC-2998 colon, in the assay on KM12 colon, with OVCAR-4 ovarian and in the assay on SF-295 CNS was over 100 µM in each case. Moreover, the TGI in the assay on SNB-19 CNS and in the assay with SR leukemia was over 100 µM each time.
For the compound `CC(=O)C1C(=O)C(=O)N(c2ccccc2N2C(=O)C(=O)C(C(C)=O)C2=O)C1=O` (stereo unspecified), the TGI with A549 NSCLC, with CAKI-1 renal, with HCC-2998 colon, with KM12 colon, in the assay on OVCAR-4 ovarian and with SF-295 CNS was over 100 µM throughout. Further, the TGI in the assay with SNB-19 CNS and in the assay with SR leukemia was over 100 µM throughout.
For the compound `COc1c(NC(=O)CC(C)=O)[c]([Hg][O]C(C)=O)c(OC)c(Cl)[c]1[Hg][O]C(C)=O`, the GI50 with A549 NSCLC is 21.9 µM; in the assay on CAKI-1 renal it was 13 µM; in the assay with HCC-2998 colon, 18.8 µM; in the assay with KM12 colon, 13.8 µM; with OVCAR-4 ovarian, 14.5 µM; in the assay on SF-295 CNS, 17 µM. For the same compound, the GI50 with SNB-19 CNS is 18 µM; in the assay with SR leukemia, 3.67 µM. Besides, the TGI in the assay with A549 NSCLC was 47 µM; in the assay with CAKI-1 renal, 25.6 µM; in the assay on HCC-2998 colon it was 34.3 µM; with KM12 colon, 26.7 µM; in the assay with OVCAR-4 ovarian, 35.7 µM; in the assay on SF-295 CNS, 31.8 µM. In addition, the TGI is 32.3 µM with SNB-19 CNS and 82.1 µM with SR leukemia.
On to `Cc1ccccc1-c1c(N)nc(N)nc1C(=O)Nc1nccs1`, for which the TGI in the assay with A549 NSCLC, with CAKI-1 renal, with HCC-2998 colon, with KM12 colon, in the assay with OVCAR-4 ovarian and in the assay on SF-295 CNS was over 100 µM in each case. Besides, the TGI with SNB-19 CNS and in the assay with SR leukemia was over 100 µM in each case.
Regarding `CCCCCCCCCC1C(C)c2c([nH]c3ccccc23)C2C(=O)N(c3ccccc3)C(=O)C21` (stereo unspecified), the TGI in the assay with A549 NSCLC is over 100 µM; in the assay with CAKI-1 renal, 28.8 µM; in the assay with HCC-2998 colon, 25.7 µM; in the assay with KM12 colon, 16.2 µM; in the assay on OVCAR-4 ovarian, 19.1 µM; in the assay on SF-295 CNS, 28.9 µM.
On to `Cc1ccc(NC(=O)CC/C(CC(=O)c2ccc(F)cc2)=N\NC(=O)C(=O)NN)cc1C`, for which the TGI in the assay with A549 NSCLC, in the assay with CAKI-1 renal, in the assay on HCC-2998 colon, in the assay on KM12 colon, in the assay on OVCAR-4 ovarian and in the assay with SF-295 CNS was over 100 µM in each case. The total growth inhibition concentration (TGI) in the assay on SNB-19 CNS was over 100 µM.
Turning to `CCC1(C(=O)OC)CCc2c(OC)ccc(OC)c2C1=O` (stereo unspecified), the concentration for total growth inhibition (TGI) in the assay with A549 NSCLC, in the assay on CAKI-1 renal, in the assay with HCC-2998 colon, in the assay with KM12 colon, with OVCAR-4 ovarian and in the assay on SF-295 CNS was over 100 µM throughout. In addition, the TGI in the assay with SNB-19 CNS was over 100 µM.
Regarding `CN(C)CC/C(=N\Nc1ccc(Cl)c(Cl)c1)c1ccccc1`, the TGI was 3.8 µM in the assay with A549 NSCLC; 3.92 µM with KM12 colon; 5.01 µM in the assay on OVCAR-4 ovarian; 3.99 µM in the assay with SF-295 CNS; 13.8 µM with SNB-19 CNS; 5.58 µM with SR leukemia.
On to `O=C1[C@@H]2C3SC(c4ccccc43)[C@@H]2C(=O)N1c1ccccc1`, for which the TGI in the assay with A549 NSCLC, in the assay on CAKI-1 renal, in the assay on HCC-2998 colon, with KM12 colon, with SF-295 CNS and with SNB-19 CNS was over 100 µM in each case. Further, in the assay with SR leukemia, the TGI was over 100 µM.
With `NC(=S)NNC(=O)CCC(=O)Nc1ccc(Cl)cc1Cl`, the TGI in the assay on A549 NSCLC, in the assay with CAKI-1 renal, in the assay on HCC-2998 colon, in the assay on KM12 colon, in the assay with OVCAR-4 ovarian and in the assay with SF-295 CNS was over 100 µM each time. In the assay with SNB-19 CNS, this compound yielded a TGI of over 100 µM.
On to `CCC[CH2][Ge]([CH2]CCC)([CH2]CCC)[O]C(=O)C(OC)c1ccccc1` (stereo unspecified), for which the GI50 in the assay on A549 NSCLC is over 36.9 µM; in the assay on CAKI-1 renal it was 70.1 µM; in the assay on HCC-2998 colon, 23.2 µM; in the assay with KM12 colon, 26.4 µM; with OVCAR-4 ovarian, 15.3 µM; in the assay with SF-295 CNS it was 18.3 µM. For the same compound, the GI50 in the assay on SNB-19 CNS was over 93.9 µM. Moreover, the TGI is over 100 µM with A549 NSCLC; over 100 µM in the assay on CAKI-1 renal; 59 µM in the assay on HCC-2998 colon; over 100 µM in the assay with KM12 colon; over 100 µM with OVCAR-4 ovarian; over 100 µM in the assay on SF-295 CNS. The TGI with SNB-19 CNS was over 100 µM; with SR leukemia, over 55.4 µM.
Turning to `CCOC(=O)C(Cc1ccccc1)NC(=O)OC(C)(C)C` (stereo unspecified), the TGI with A549 NSCLC, with HCC-2998 colon, in the assay with KM12 colon, in the assay on SF-295 CNS and in the assay on SNB-19 CNS was over 100 µM in each case.
`CC(C)(C)OC(=O)NC1CCC[C@H]1O` (stereo partly specified): the TGI with A549 NSCLC, in the assay with CAKI-1 renal, with HCC-2998 colon, in the assay with KM12 colon, in the assay on OVCAR-4 ovarian and in the assay on SF-295 CNS was over 100 µM throughout. In addition, the TGI in the assay with SNB-19 CNS and with SR leukemia was over 100 µM in each case.
Take `O=C(O)CCCCCO`: the TGI in the assay with A549 NSCLC, in the assay on CAKI-1 renal, in the assay with HCC-2998 colon, in the assay with KM12 colon, in the assay with OVCAR-4 ovarian and in the assay with SF-295 CNS was over 100 µM each time. The TGI in the assay on SNB-19 CNS and in the assay on SR leukemia was over 100 µM throughout.
Turning to `Nc1nc(N)c(N=O)c(Nc2ccc(I)cc2)n1`, the TGI was over 100 µM in the assay with A549 NSCLC; 88.2 µM in the assay on HCC-2998 colon; over 100 µM in the assay on KM12 colon; 67.9 µM in the assay on SF-295 CNS; over 100 µM in the assay on SNB-19 CNS; 76.1 µM with SR leukemia.
Consider `O=C(/C=C/c1ccccc1O)c1cccnc1`, for which the TGI in the assay on A549 NSCLC, with CAKI-1 renal, in the assay with HCC-2998 colon, with KM12 colon, in the assay on OVCAR-4 ovarian and in the assay on SF-295 CNS was over 100 µM each time. Besides, the TGI with SNB-19 CNS and in the assay on SR leukemia was over 100 µM each time.
For `Nc1ncnc2c(C3OC(CO)C(O)C3O)scc12` (stereo unspecified), the TGI in the assay on A549 NSCLC was 1.46 µM and 5.46 µM; in the assay with HCC-2998 colon, 0.121 µM and 0.277 µM; in the assay with KM12 colon it was 0.026 µM; in the assay on OVCAR-4 ovarian it was 2.24 µM and 0.746 µM; in the assay with SF-295 CNS it was 2.45 µM and 3.66 µM; in the assay on SNB-19 CNS it was 65.6 µM. The TGI with SR leukemia was 2.49 µM. Besides, the GI50 in the assay with SF-295 CNS was 0.591 µM; in the assay on SNB-19 CNS, 4.92 µM; in the assay on SR leukemia it was 0.0621 µM.
For the compound `CC(=O)OC1C/C(C)=C/CCC(C)/C=C/C2(C)CCC(C(C)(C)O)C12` (stereo unspecified), the TGI in the assay on A549 NSCLC, in the assay on CAKI-1 renal, in the assay on HCC-2998 colon, in the assay with KM12 colon, in the assay with OVCAR-4 ovarian and in the assay with SF-295 CNS was over 100 µM throughout. Moreover, the TGI is over 100 µM with SNB-19 CNS and 47.2 µM in the assay with SR leukemia.

The record behind these values is PubChem BioAssay (NCI).
